In ChEMBL document CHEMBL5370626, “Targeting the Subpocket Enables the Discovery of Thiadiazole-Pyridazine Derivatives as Glutaminase C Inhibitors” (ACS Med Chem Lett, 2023):

Experiments:
[1] = Volume of distribution in Sprague-Dawley rat plasma at 10 mg/kg, iv measured up to 48 hrs by LC-MS/MS analysis; assay type: ADME, organism-based
[2] = Cmax in Sprague-Dawley rat plasma at 100 mg/kg, po measured up to 48 hrs by LC-MS/MS analysis; assay type: ADME, organism-based; parameters: dose 100 mg/kg, time < 48 hrs, route po
A549 [3] = assay: Antitumor activity against human A549 cells xenografted in Balb/c nude mouse assessed as tumor growth inhibition at 100 mg/kg, po administered once daily 24 days relative to control; assay type: functional; conditions: A549, 576 h, time 24 day, read-out: TGI
[4] = Mutagenicity in Salmonella typhimurium TA100 measured at 1.5 to 1000 ug per well for 48 to 72 hrs by mini-Ames test; assay type: toxicity, Salmonella enterica subsp. enterica serovar Typhimurium; conditions: in vivo; dose lower 1.5 µg, time lower 48 hrs, dose upper 1000 µg, time upper 72 hrs
A549 [5] = assay: Inhibition of colony formation in human A549 cells assessed as reduction of colony number measured after 4 days by crystal violet staining-based colony formation assay; assay type: functional, cell-based; conditions: dose 10-1000 nM, time 4.0 day
[6] = Clearance in Sprague-Dawley rat plasma at 10 mg/kg, iv measured up to 48 hrs by LC-MS/MS analysis; assay type: ADME, organism-based
[7] = Mutagenicity in Salmonella typhimurium TA98 measured at 1.5 to 1000 ug per well for 48 to 72 hrs by mini-Ames test; assay type: toxicity, Salmonella enterica subsp. enterica serovar Typhimurium; conditions: in vivo; dose lower 1.5 µg, time lower 48 hrs, dose upper 1000 µg, time upper 72 hrs
[8] = Mutagenicity in Salmonella typhimurium TA1537 measured at 1.5 to 1000 ug per well for 48 to 72 hrs in presence of S9 liver fraction by mini-Ames test; assay type: toxicity, subcellular, Salmonella enterica subsp. enterica serovar Typhimurium; conditions: dose lower 1.5 µg, time lower 48 hrs, dose upper 1000 µg, time upper 72 hrs
[9] = biological target: T1, Glutaminase kidney isoform, mitochondrial (Homo sapiens) (UniProt O94925); assay: Inhibition of human GAC in A549 cells assessed as induction of ROS level incubated for 16 hrs by DCFH-DA staining based flow cytometric analysis; assay type: cell-based; conditions: dose 100-1000 nM
T1 sequence (whole entry): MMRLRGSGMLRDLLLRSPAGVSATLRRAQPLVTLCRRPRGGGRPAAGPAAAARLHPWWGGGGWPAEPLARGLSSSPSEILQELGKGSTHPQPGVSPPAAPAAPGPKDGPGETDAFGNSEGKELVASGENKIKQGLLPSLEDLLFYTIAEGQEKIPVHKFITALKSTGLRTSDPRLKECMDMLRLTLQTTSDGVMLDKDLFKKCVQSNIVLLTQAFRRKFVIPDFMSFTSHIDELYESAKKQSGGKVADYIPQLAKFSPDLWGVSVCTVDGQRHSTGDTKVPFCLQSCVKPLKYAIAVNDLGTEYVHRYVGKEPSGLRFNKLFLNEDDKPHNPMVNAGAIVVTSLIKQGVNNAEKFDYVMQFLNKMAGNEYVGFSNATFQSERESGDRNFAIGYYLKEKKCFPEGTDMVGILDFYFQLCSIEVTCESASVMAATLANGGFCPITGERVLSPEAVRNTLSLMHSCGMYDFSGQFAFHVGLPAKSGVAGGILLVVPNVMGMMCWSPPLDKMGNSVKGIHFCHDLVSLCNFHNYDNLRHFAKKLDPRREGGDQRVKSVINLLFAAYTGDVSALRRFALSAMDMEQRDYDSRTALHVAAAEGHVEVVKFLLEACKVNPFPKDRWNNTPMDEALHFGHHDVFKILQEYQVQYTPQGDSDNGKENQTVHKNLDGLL

[10] = MRT(0 to t) in Sprague-Dawley rat plasma at 10 mg/kg, iv measured up to 48 hrs by LC-MS/MS analysis; assay type: ADME, organism-based
[11] = MRT(0 to infinity) in Sprague-Dawley rat plasma at 10 mg/kg, iv measured up to 48 hrs by LC-MS/MS analysis; assay type: ADME, organism-based

Vd [1]: 15.7 L/kg
Cmax [2]: 0.487 µg/mL
clearance [6]: 2.18 L/h/kg
inhibition [9]: Dose-Dependent Effect
MRT last at 48 h [10]: 1.52 h
MRT inf [11]: 1.59 h
SMILES: O=C(Cc1cccc(Oc2ccccc2)c1)Nc1nnc(N[C@@H]2CCN(c3cccnn3)C2)s1
inhibition in vivo at 100 mg/kg (A549 [3]): 51.4%
Activity [4]: Non-Toxic
inhibition (A549 [5]): Dose-Dependent Effect
Activity [7]: Non-Toxic
Activity [8]: Non-Toxic
